# Assay results: ChEMBL document CHEMBL4342421, “Current scenario of tetrazole hybrids for antibacterial activity” (Eur J Med Chem, 2019)
# Experiments:
# Type in all cases: functional
# [1] = system: Staphylococcus aureus; test: Antimicrobial activity against Staphylococcus aureus
# [2] = system: Escherichia coli; test: Antimicrobial activity against Escherichia coli
# [3] = system: Pseudomonas aeruginosa; test: Antimicrobial activity against Pseudomonas aeruginosa
# [4] = system: Bacillus subtilis; test: Antimicrobial activity against Bacillus subtilis
# [5] = system: Candida albicans; test: Antifungal activity against Candida albicans
# [6] = system: Aspergillus niger; test: Antifungal activity against Aspergillus niger
# [7] = system: Aspergillus niger; test: Antifungal activity against Aspergillus niger assessed as zone of inhibition at 250 ug/ml; details: read-out: IZ
# [8] = system: Staphylococcus aureus; test: Antimicrobial activity against Staphylococcus aureus assessed as zone of inhibition at 250 ug/ml; details: read-out: IZ
# [9] = system: Bacillus cereus; test: Antimicrobial activity against Bacillus cereus assessed as zone of inhibition at 250 ug/ml; details: read-out: IZ
# [10] = system: Escherichia coli; test: Antimicrobial activity against Escherichia coli assessed as zone of inhibition at 250 ug/ml; details: read-out: IZ
# [11] = system: Candida albicans; test: Antifungal activity against Candida albicans assessed as zone of inhibition at 250 ug/ml; details: read-out: IZ
# [12] = system: Pseudomonas aeruginosa; test: Antimicrobial activity against Pseudomonas aeruginosa assessed as zone of inhibition at 250 ug/ml; details: read-out: IZ
Compound,MIC [1],MIC [2],MIC [3],MIC [4],MIC [5],MIC [6],also measured
COc1cc(/C=C2\SC(=O)N(Cc3ccc(-c4ccccc4-c4nnn[nH]4)cc3)C2=O)cc(OC)c1,,7.75 to 35.4 µg/mL,,7.75 to 35.4 µg/mL,,,
O=C1S/C(=C\c2ccc(Cl)cc2)C(=O)N1Cc1ccc(-c2ccccc2-c2nnn[nH]2)cc1,,7.75 to 35.4 µg/mL,,7.75 to 35.4 µg/mL,,,
Cc1ccc2c(c1)cc(/C=C/C(=O)c1ccc(Cl)cc1)c1nnnn12,6.25 to 100 µg/mL,6.25 to 100 µg/mL,6.25 to 100 µg/mL,,6.25 to 100 µg/mL,6.25 to 100 µg/mL,
O=c1c(OCc2nnn[nH]2)c(-c2ccc(F)cc2)oc2cc(Cl)ccc12,50 to 400 µg/mL,50 to 400 µg/mL,50 to 400 µg/mL,50 to 400 µg/mL,,,
O=c1c(OCc2nnn[nH]2)c(-c2ccc(F)cc2)oc2cc(Cl)cc(Cl)c12,50 to 400 µg/mL,50 to 400 µg/mL,50 to 400 µg/mL,50 to 400 µg/mL,,,
CC(=O)N1N=C(Cn2cc(-c3nn(-c4ccncc4)cc3-c3nnnn3-c3ccc(C)cc3)c3cc(Cl)ccc32)OC1(C)c1ccc(C(F)(F)F)cc1 (stereo not drawn),,,,,,,zone of inhibition at 250 µg/mL [7]: 8 to 20 mm; zone of inhibition at 250 µg/mL [8]: 8 to 20 mm; zone of inhibition at 250 µg/mL [9]: 8 to 20 mm; zone of inhibition at 250 µg/mL [10]: 8 to 20 mm; zone of inhibition at 250 µg/mL [11]: 8 to 20 mm; zone of inhibition at 250 µg/mL [12]: 8 to 20 mm
O=C1S/C(=C\c2ccc(F)cc2)C(=O)N1Cc1ccc(-c2ccccc2-c2nnn[nH]2)cc1,,7.75 to 35.4 µg/mL,,7.75 to 35.4 µg/mL,,,
CC(=O)N1N=C(Cn2cc(-c3nn(-c4ccncc4)cc3-c3nnnn3-c3ccc(Br)cc3)c3cc(Cl)ccc32)OC1(C)c1ccc(C(F)(F)F)cc1 (stereo not drawn),,,,,,,zone of inhibition at 250 µg/mL [7]: 8 to 20 mm; zone of inhibition at 250 µg/mL [8]: 8 to 20 mm; zone of inhibition at 250 µg/mL [9]: 8 to 20 mm; zone of inhibition at 250 µg/mL [10]: 8 to 20 mm; zone of inhibition at 250 µg/mL [11]: 8 to 20 mm; zone of inhibition at 250 µg/mL [12]: 8 to 20 mm
O=C1S/C(=C\c2ccccc2Cl)C(=O)N1Cc1ccc(-c2ccccc2-c2nnn[nH]2)cc1,,7.75 to 35.4 µg/mL,,7.75 to 35.4 µg/mL,,,
Cc1ccc2c(=O)c(OCc3nnn[nH]3)c(-c3ccc(F)cc3)oc2c1,50 to 400 µg/mL,50 to 400 µg/mL,50 to 400 µg/mL,50 to 400 µg/mL,,,
COc1ccc(C(=O)/C=C/c2cc3ccc(C)cc3n3nnnc23)cc1,6.25 to 100 µg/mL,6.25 to 100 µg/mL,6.25 to 100 µg/mL,,6.25 to 100 µg/mL,6.25 to 100 µg/mL,
c1ccc(C(c2ccccc2)(c2ccccc2)n2nnnc2-c2ccccc2-c2ccc(CNn3cnnc3)cc2)cc1,,22.4 µg/mL,,24.8 µg/mL,,,
COc1ccc(/C=C2\SC(=O)N(Cc3ccc(-c4ccccc4-c4nnn[nH]4)cc3)C2=O)cc1OC,,7.75 to 35.4 µg/mL,,7.75 to 35.4 µg/mL,,,

# Now from value to molecule, other results behind:
MIC [1],MIC [2],MIC [3],MIC [4],MIC [5],MIC [6],Compound,also measured
> 320 µg/mL,> 320 µg/mL,> 320 µg/mL,,,,c1ccc2c(c1)cc(-c1nc3sccn3c1NC1CCCCC1)c1nnnn12,
3.12 to 100 µg/mL,3.12 to 100 µg/mL,3.12 to 100 µg/mL,,3.12 to 100 µg/mL,3.12 to 100 µg/mL,Cc1ccc2c(c1)cc(C1CC(c3ccccn3)=NN1C(N)=S)c1nnnn12 (stereo not drawn),
6.25 to 100 µg/mL,6.25 to 100 µg/mL,6.25 to 100 µg/mL,,6.25 to 100 µg/mL,6.25 to 100 µg/mL,Cc1ccc2c(c1)cc(/C=C/C(=O)c1cccs1)c1nnnn12,
> 320 µg/mL,> 320 µg/mL,> 320 µg/mL,,,,c1ccc(CCNc2c(-c3cc4ccccc4n4nnnc34)nc3sccn23)cc1,
> 320 µg/mL,> 320 µg/mL,> 320 µg/mL,,,,N#Cc1cn2c(NCCc3ccccc3)c(-c3cc4ccccc4n4nnnc34)nc2s1,
6.25 to 100 µg/mL,6.25 to 100 µg/mL,6.25 to 100 µg/mL,,6.25 to 100 µg/mL,6.25 to 100 µg/mL,Cc1ccc2cc(/C=C/C(=O)c3cccs3)c3nnnn3c2c1,
3.12 to 100 µg/mL,3.12 to 100 µg/mL,3.12 to 100 µg/mL,,3.12 to 100 µg/mL,3.12 to 100 µg/mL,Cc1ccc2cc(C3CC(c4cccs4)=NN3C(N)=S)c3nnnn3c2c1 (stereo not drawn),
> 320 µg/mL,> 320 µg/mL,> 320 µg/mL,,,,N#Cc1cn2c(NC3CCCCC3)c(-c3cc4ccccc4n4nnnc34)nc2s1,
3.12 to 100 µg/mL,3.12 to 100 µg/mL,3.12 to 100 µg/mL,,3.12 to 100 µg/mL,3.12 to 100 µg/mL,Cc1ccc2c(c1)cc(C1CC(c3ccccc3)=NN1C(N)=S)c1nnnn12 (stereo not drawn),
6.25 to 100 µg/mL,6.25 to 100 µg/mL,6.25 to 100 µg/mL,,6.25 to 100 µg/mL,6.25 to 100 µg/mL,Cc1ccc2cc(/C=C/C(=O)c3ccccc3)c3nnnn3c2c1,
3.12 to 100 µg/mL,3.12 to 100 µg/mL,3.12 to 100 µg/mL,,3.12 to 100 µg/mL,3.12 to 100 µg/mL,Cc1ccc2cc(C3CC(c4ccc(Cl)cc4)=NN3C(N)=S)c3nnnn3c2c1 (stereo not drawn),
